Tests used:
[1] = system: HuPrime pancreatic cancer xenograft model PA1222; assay: In vivo pharmacodynamic experiment in HuPrime pancreatic cancer PA1222 PDX model
[2] = Maximal tolerance dose (MTD) test; format: in vivo; settings: mice
Method: According to the research scheme in Table 14, mice were grouped and administered at the concentrations and dosage levels shown in Table 14. On the 1st to 5th day and the 14th to 19th day, intraperitoneal injection of a solvent control or compound H11 at different dosage levels was performed, with a dose volume of 10 mL/kg. Animals in Groups 1, 3, and 4 were put to death and autopsied on the 22nd day, and animals in Group 2 were put to death and autopsied on the 16th day.
The evaluated parameters included cage-side observation, detailed clinical observation, and post-administration observation (approximately 1-2 hours after dosing), body weight and weight change, food intake, and gross pathology.

[3] = Plasma stability in mouse plasma; format: in vitro ADME
Method: The final concentration of organic solvents was 0.5%. The test was conducted in duplicate. • C.
Samples were analyzed with LC-MS/MS. All calculations were conducted using Microsoft Excel.

[4] = Group 5, 160 mg/kg i.v. Q2D×3 weeks, Day 32

Question: For `CC(C)NP(=O)(OCc1ccc([N+](=O)[O-])c(Oc2ccc(-c3ccc(F)cc3)c(F)c2)c1)OCC1OC(C2N=CC(N)=NC2=O)C(F)(F)C1O` (centres unmarked) [Compound H11], which “Average weight (g) of mice” value ([1]; Group 4, 160 mg/kg i.p., Day 21) is on record?
Answer: The value was 22.9 g.

Question: And the “Average weight (g) of mice” value ([1]; Group 4, 160 mg/kg i.p., Day 22)?
Answer: Its value is 22.6 g.

Question: What about the “Average weight (g) of mice” value ([1]; Group 4, 160 mg/kg i.p., Day 23) of the same compound?
Answer: The value was 22.5 g.

Question: And the “Average weight (g) of mice” value ([1]; Group 4, 160 mg/kg i.p., Day 24)?
Answer: Its value is 22.6 g.

Question: What about the “Average weight (g) of mice” value ([1]; Group 4, 160 mg/kg i.p., Day 25) of the same compound?
Answer: The value was 22.5 g.

Question: What about the “Average weight (g) of mice” value ([1]; Group 4, 160 mg/kg i.p., Day 28) of the same compound?
Answer: The value was 22.6 g.

Question: And the “Average weight (g) of mice” value ([1]; Group 4, 160 mg/kg i.p., Day 32)?
Answer: Its value is 23.3 g.

Question: And the “Tumor volume (mm^3) (x ± S)” value ([1]; Group 4, 160 mg/kg i.p., day 0)?
Answer: The value was 101.91 mm^3.

Question: And the “Tumor volume (mm^3) (x ± S)” value ([1]; Group 4, 160 mg/kg i.p., day 4)?
Answer: The value was 105.94 mm^3.

Question: And the “Tumor volume (mm^3) (x ± S)” value ([1]; Group 4, 160 mg/kg i.p., day 7)?
Answer: Its value is 96.63 mm^3.

Question: And the “Tumor volume (mm^3) (x ± S)” value ([1]; Group 4, 160 mg/kg i.p., day 11)?
Answer: Its value is 116.07 mm^3.

Question: What about the “Tumor volume (mm^3) (x ± S)” value ([1]; Group 4, 160 mg/kg i.p., day 14) of the same compound?
Answer: Its value is 139.61 mm^3.

Question: What about the “Tumor volume (mm^3) (x ± S)” value ([1]; Group 4, 160 mg/kg i.p., day 18) of the same compound?
Answer: Its value is 153.86 mm^3.

Question: And the “Tumor volume (mm^3) (x ± S)” value ([1]; Group 4, 160 mg/kg i.p., day 21)?
Answer: Its value is 188.69 mm^3.

Question: And the “Tumor volume (mm^3) (x ± S)” value ([1]; Group 4, 160 mg/kg i.p., day 25)?
Answer: Its value is 198.68 mm^3.

Question: What about the “Tumor volume (mm^3) (x ± S)” value ([1]; Group 4, 160 mg/kg i.p., day 28) of the same compound?
Answer: Its value is 195.90 mm^3.

Question: What about the “Tumor volume (mm^3) (x ± S)” value ([1]; Group 4, 160 mg/kg i.p., day 32) of the same compound?
Answer: Its value is 202.58 mm^3.

Question: What about the “weight loss and tolerability during treatment” value ([1]; Group 5, 160 mg/kg i.v. Q2D×3 weeks) of the same compound?
Answer: Its value is “did not show any significant weight loss, and tolerated well”.

Question: What about the “Relative tumor volume (x ± S)” value [1, 4] of the same compound?
Answer: Its value is 0.00 ± 0.00.

Question: What about the “T/C (%)” value [1, 4] of the same compound?
Answer: Its value is 0.00%.

Question: And the “TGI (%)” value [1, 4]?
Answer: The value was 100%.

Question: What about the “complete tumor inhibition rate” value [1, 4] of the same compound?
Answer: The value was 100%.

Question: And the “Tumor volume (x ± S)” value ([1]; Group 5, 160 mg/kg i.v. Q2D×3 weeks, Day 32, mean ± standard error)?
Answer: The value was 0.00 ± 0.00.

Question: What about the “Average weight (g) of mice” value ([1]; Group 5, 160 mg/kg i.v., Day 0) of the same compound?
Answer: The value was 21.6 g.

Question: What about the “Average weight (g) of mice” value ([1]; Group 5, 160 mg/kg i.v., Day 2) of the same compound?
Answer: Its value is 21.8 g.

Question: What about the “Average weight (g) of mice” value ([1]; Group 5, 160 mg/kg i.v., Day 4) of the same compound?
Answer: Its value is 21.4 g.

Question: And the “Average weight (g) of mice” value ([1]; Group 5, 160 mg/kg i.v., Day 7)?
Answer: Its value is 20.9 g.

Question: And the “Average weight (g) of mice” value ([1]; Group 5, 160 mg/kg i.v., Day 8)?
Answer: The value was 21.6 g.

Question: And the “Average weight (g) of mice” value ([1]; Group 5, 160 mg/kg i.v., Day 10)?
Answer: The value was 21.3 g.

Question: And the “Average weight (g) of mice” value ([1]; Group 5, 160 mg/kg i.v., Day 11)?
Answer: The value was 22.1 g.

Question: And the “Average weight (g) of mice” value ([1]; Group 5, 160 mg/kg i.v., Day 12)?
Answer: The value was 22.2 g.

Question: What about the “Average weight (g) of mice” value ([1]; Group 5, 160 mg/kg i.v., Day 14) of the same compound?
Answer: Its value is 22.0 g.

Question: What about the “Average weight (g) of mice” value ([1]; Group 5, 160 mg/kg i.v., Day 16) of the same compound?
Answer: The value was 22.3 g.

Question: And the “Average weight (g) of mice” value ([1]; Group 5, 160 mg/kg i.v., Day 18)?
Answer: The value was 22.1 g.

Question: And the “Average weight (g) of mice” value ([1]; Group 5, 160 mg/kg i.v., Day 20)?
Answer: The value was 22.1 g.

Question: And the “Average weight (g) of mice” value ([1]; Group 5, 160 mg/kg i.v., Day 21)?
Answer: Its value is 22.3 g.

Question: What about the “Average weight (g) of mice” value ([1]; Group 5, 160 mg/kg i.v., Day 25) of the same compound?
Answer: The value was 22.6 g.

Question: And the “Average weight (g) of mice” value ([1]; Group 5, 160 mg/kg i.v., Day 28)?
Answer: The value was 22.5 g.

Question: And the “Average weight (g) of mice” value ([1]; Group 5, 160 mg/kg i.v., Day 32)?
Answer: Its value is 23.2 g.

Question: What about the “Tumor volume (mm^3) (x ± S)” value ([1]; Group 5, 160 mg/kg i.v., day 0) of the same compound?
Answer: Its value is 102.11 mm^3.

Question: What about the “Tumor volume (mm^3) (x ± S)” value ([1]; Group 5, 160 mg/kg i.v., day 4) of the same compound?
Answer: The value was 98.46 mm^3.

Question: What about the “Tumor volume (mm^3) (x ± S)” value ([1]; Group 5, 160 mg/kg i.v., day 7) of the same compound?
Answer: Its value is 79.97 mm^3.

Question: What about the “Tumor volume (mm^3) (x ± S)” value ([1]; Group 5, 160 mg/kg i.v., day 11) of the same compound?
Answer: The value was 40.67 mm^3.

Question: What about the “Tumor volume (mm^3) (x ± S)” value ([1]; Group 5, 160 mg/kg i.v., day 14) of the same compound?
Answer: Its value is 22.37 mm^3.

Question: What about the “Tumor volume (mm^3) (x ± S)” value ([1]; Group 5, 160 mg/kg i.v., day 18) of the same compound?
Answer: Its value is 11.52 mm^3.

Question: And the “Tumor volume (mm^3) (x ± S)” value ([1]; Group 5, 160 mg/kg i.v., day 21)?
Answer: Its value is 11.56 mm^3.

Question: And the “Tumor volume (mm^3) (x ± S)” value ([1]; Group 5, 160 mg/kg i.v., day 25)?
Answer: Its value is 6.73 mm^3.

Question: What about the “Tumor volume (mm^3) (x ± S)” value ([1]; Group 5, 160 mg/kg i.v., day 28) of the same compound?
Answer: The value was 0.00 mm^3.

Question: And the “Tumor volume (mm^3) (x ± S)” value ([1]; Group 5, 160 mg/kg i.v., day 32)?
Answer: The value was 0.00 mm^3.

Question: What about the Clinical symptoms ([2]; 80, 160, 320 mg/kg/day i.p.) of the same compound?
Answer: The Clinical symptoms was “No abnormal compound-related clinical manifestation was observed”.

Question: And the “Impact on animal weight and food intake” value ([2]; 80, 160, 320 mg/kg/day i.p.)?
Answer: The value was “No abnormal compound-related change in body weight or food intake was observed”.

Question: What about the Mortality of animals ([2]; 80, 160, 320 mg/kg/day i.p., two rounds of 5 days) of the same compound?
Answer: Its Mortality of animals is “all experimental animals survived until the planned autopsy”.

Question: What about the “dose at which enlargement of the spleen was visible (pathological examination)” value ([2]; i.p.) of the same compound?
Answer: The value was ≥ 160 mg/kg.

Question: And the “dose group with change to white in the renal capsule (pathological examination)” value ([2]; i.p.)?
Answer: Its value is 320 mg/kg.

Question: And the maximal tolerance dose ([2]; intraperitoneal injection once a day for 5 consecutive days)?
Answer: The maximal tolerance dose was 320 mg/kg.

Question: What about the “t1/2 (min)” value [3] of the same compound?
Answer: Its value is “∞”.

Question: What about the “Remaining percentage (%)” value ([3]; 0 min, 5 μM, 37° C.) of the same compound?
Answer: Its value is 100.00%.

Question: And the “plasma stability (in words)” value ([3]; 37° C., at least 2 hours)?
Answer: Its value is “stable and has no significant metabolism”.

Question: What about the “Remaining percentage (%)” value ([3]; 15 min) of the same compound?
Answer: The value was 102.19%.

Question: What about the “Remaining percentage (%)” value ([3]; 30 min) of the same compound?
Answer: Its value is 96.83%.

Question: What about the “Remaining percentage (%)” value ([3]; 60 min) of the same compound?
Answer: The value was 104.70%.

Question: What about the “Remaining percentage (%)” value ([3]; 120 min) of the same compound?
Answer: The value was 97.53%.

Source: patent US20240368209A1, “GEMCITABINE ANTICANCER DERIVATIVE AND ANTICANCER PHARMACEUTICAL USE” (ASCENTAWITS PHARMACEUTICALS, LTD., priority 2021, published 2024)
